Data on 5 compounds can be found in patent publication US9580444B2, “Polycyclic pyrazolinone derivative and herbicide comprising same as effective component thereof” (priority 2013, dated 2017).

Common to all, as to type: in vivo
Series [1] relates to Cyperus difformis (smallflower umbrella plant). Briefly: Test Example-1: herbicidal effect by a treatment before weeds are generated under submerged conditions. The conditions noted are these: 500 g a.i/ha, pre-emergence treatment, about 15 days after treatment, score 0-5. The method in brief: (§1)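 Weed seeds were sown in puddled paddy soil under flooding, then the diluted formulated compound was added to the water the same day at a predetermined dosage, and weed control was rated roughly 15 days afterwards in six stages (0–5).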

Series [2] concerns Echinochloa oryzicola (barnyard grass). The description is as above. The conditions noted are these: 500 g a.i/ha, pre-emergence treatment, about 15 days after treatment, score 0-5. In short, it runs like this: as §1
Series [3] relates to Eleocharis acicularis (needle spikerush). The series is described as above. The conditions noted are these: 500 g a.i/ha, pre-emergence treatment, about 15 days after treatment, score 0-5. In short, it runs like this:
as §1

In series [4] the test system is Monochoria vaginalis (monochoria). Described as above. The note with it: 500 g a.i/ha, pre-emergence treatment, about 15 days after treatment, score 0-5. The method in brief: as §1
The test system of series [5] is Scirpus juncoides (bulrush). The description is as above. The conditions noted are these: 500 g a.i/ha, pre-emergence treatment, about 15 days after treatment, score 0-5. The method in brief: as §1
The subject of series [6] is other annual broad leaf weeds (Lindernia procumbens, Rotala indica, Elatine triandra). Described as above. The conditions noted are these: 500 g a.i/ha, pre-emergence treatment, about 15 days after treatment, score 0-5. The method in brief:
as §1

Series [7] relates to Amaranthus viridis (green amaranthus). Briefly: Test Example-2: herbicidal effect by a soil treatment before weeds are generated under upland field conditions. The note with it: application amount 500 g a.i/ha, soil spray treatment before weeds are generated, about 21 days after the treatment, score 0 to 5. An excerpt: (§2) Using the formulation prepared according to the methods described above, the herbicidal effect of the bicyclic pyrazolinone derivative of the invention according to the methods shown in Test Examples below was examined. The herbicidal effect with respect to the test weeds or the phytotoxicity with respect to the test crops was examined according to the following criteria, and evaluated in six stage scores of 0 to 5. A vat having an area of 81 cm^2 and a depth of 3.5 cm was filled with upland soil, then, seeds of Amaranthus viridis (green amaranthus), Chenopodium album (common lambsquarters), and corn were seeded thereto, and the seeds were covered with soil of about 0.5 cm. Next day, a wettable powder or an emulsifiable concentrate of the compound of the present invention prepared according to Formulation Example was diluted, and a spray treatment was uniformly performed on the covered oil so as to be a predetermined dosage. The herbicidal effect with respect to the test weeds and the phytotoxicity with respect to corn about 21 days after the treatment were evaluated according to the evaluation criteria in six stages of 0 to 5 described above.

The subject of series [8] is Chenopodium album (common lambsquarters). The series is described as above. The note with it: application amount 500 g a.i/ha, soil spray treatment before weeds are generated, about 21 days after the treatment, score 0 to 5.
Excerpt: as §2

The subject of series [9] is corn. The series can be described thus: Test Example-2: phytotoxicity by a soil treatment before weeds are generated under upland field conditions. The conditions noted are these: application amount 500 g a.i/ha, soil spray treatment before weeds are generated, about 21 days after the treatment, score 0 to 5.
Excerpt: as §2

Series [10] deals with Abutilon theophrasti (velvetleaf). The series can be described thus: Test Example-4: herbicidal effect by a foliage treatment after weeds are generated under upland field conditions. The conditions noted are these: 500 g a.i/ha, foliage treatment after emergence, about 14 days after treatment, score 0-5. In short, it runs like this:
(§3)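 Read-out is a visual six-stage score from 0 to 5 for weed control or corn phytotoxicity, taken about 14 days after a uniform foliar spray. Plants had grown 14 days from seed in upland soil before the compound was applied at a predetermined dosage in 4000 L water per hectare.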

The test system of series [11] is Amaranthus viridis (green amaranthus). The series is described as above. The note with it: 500 g a.i/ha, foliage treatment after emergence, about 14 days after treatment, score 0-5. In short, it runs like this:
as §3

For series [12], the system named is Chenopodium album (common lambsquarters). The description is as above. The conditions noted are these: 500 g a.i/ha, foliage treatment after emergence, about 14 days after treatment, score 0-5. In short, it runs like this: as §3
For series [13], the system named is corn. The series can be described thus: Test Example-4: phytotoxicity by a foliage treatment after weeds are generated under upland field conditions. The conditions noted are these: 500 g a.i/ha, foliage treatment after emergence, about 14 days after treatment, score 0-5. The method in brief: as §3

Regarding `C#CCOc1cc(-c2c(Cl)n3n(c2=O)CCOCC3)c(F)cc1F` [Example 1-368], the “Herbicidal effect Cyperus difformis” value in [1] was 5 (Herbicidal effect/phytotoxicity was 90% or greater). Besides, the “Herbicidal effect Echinochloa oryzicola” value in series [2] is on record as 5 (Herbicidal effect/phytotoxicity was 90% or greater). Further, the “Herbicidal effect Eleocharis acicularis” value in series [3] is given as 5 (Herbicidal effect/phytotoxicity was 90% or greater). Further, the “Herbicidal effect Monochoria vaginalis” value in [4] is on record as 5 (Herbicidal effect/phytotoxicity was 90% or greater). Further, the “Herbicidal effect Scirpus juncoides” value in [5] is recorded as 5 (Herbicidal effect/phytotoxicity was 90% or greater). In addition, the “Herbicidal effect Broadleaf weed” value in series [6] is reported as 5 (Herbicidal effect/phytotoxicity was 90% or greater). The “Herbicidal effect Amaranthus viridis” value in series [7] and in series [11] was 5 (Herbicidal effect/phytotoxicity was 90% or greater) in each case. For the same compound, the “Herbicidal effect Chenopodium album” value in series [8] and in series [12] was 5 (Herbicidal effect/phytotoxicity was 90% or greater) each time. Also, the results for the “Phytotoxicity Corn” value in the series on corn [9] and with corn [13] were 0 (Herbicidal effect/phytotoxicity was 0% to 10%) and 1 (Herbicidal effect/phytotoxicity was 10% to 30%), respectively. The “Herbicidal effect Abutilon theophrast” value in [10] is 5 (Herbicidal effect/phytotoxicity was 90% or greater).

For `C=C(C)COc1cc(-c2c(Cl)n3n(c2=O)CCCC3)c(F)cc1Cl` [Example 1-214], the “Herbicidal effect Cyperus difformis” value in series [1] is 5 (Herbicidal effect/phytotoxicity was 90% or greater). The “Herbicidal effect Echinochloa oryzicola” value in [2] is 5 (Herbicidal effect/phytotoxicity was 90% or greater). The “Herbicidal effect Eleocharis acicularis” value in [3] is 5 (Herbicidal effect/phytotoxicity was 90% or greater). Moreover, the “Herbicidal effect Monochoria vaginalis” value in [4] is 5 (Herbicidal effect/phytotoxicity was 90% or greater). In [5], the “Herbicidal effect Scirpus juncoides” value was 5 (Herbicidal effect/phytotoxicity was 90% or greater). Further, the “Herbicidal effect Broadleaf weed” value in series [6] was 5 (Herbicidal effect/phytotoxicity was 90% or greater). Also, the “Herbicidal effect Amaranthus viridis” value in series [7] and in series [11] was 5 (Herbicidal effect/phytotoxicity was 90% or greater) in each case. For the same compound, the “Herbicidal effect Chenopodium album” value in series [8] and in series [12] was 5 (Herbicidal effect/phytotoxicity was 90% or greater) throughout. In addition, the “Phytotoxicity Corn” value in the series on corn [9] was 0 (Herbicidal effect/phytotoxicity was 0% to 10%); with corn [13], 2 (Herbicidal effect/phytotoxicity was 30% to 50%). The “Herbicidal effect Abutilon theophrast” value in [10] is listed as 5 (Herbicidal effect/phytotoxicity was 90% or greater).

For `C#CCOc1cc(-c2c(Cl)n3n(c2=O)CCCCC3)c(Cl)cc1Cl` [Example 1-303], the “Herbicidal effect Cyperus difformis” value in [1] was 5 (Herbicidal effect/phytotoxicity was 90% or greater). Moreover, the “Herbicidal effect Echinochloa oryzicola” value in series [2] is on record as 5 (Herbicidal effect/phytotoxicity was 90% or greater). Also, the “Herbicidal effect Eleocharis acicularis” value in series [3] was 5 (Herbicidal effect/phytotoxicity was 90% or greater). In addition, the “Herbicidal effect Monochoria vaginalis” value in [4] is reported as 5 (Herbicidal effect/phytotoxicity was 90% or greater). The “Herbicidal effect Scirpus juncoides” value in series [5] is recorded as 5 (Herbicidal effect/phytotoxicity was 90% or greater). In addition, the “Herbicidal effect Broadleaf weed” value in series [6] is listed as 5 (Herbicidal effect/phytotoxicity was 90% or greater). Besides, the “Herbicidal effect Amaranthus viridis” value in [7] and in [11] was 5 (Herbicidal effect/phytotoxicity was 90% or greater) in each case. Also, the “Herbicidal effect Chenopodium album” value in [8] and in [12] was 5 (Herbicidal effect/phytotoxicity was 90% or greater) throughout. Besides, the “Phytotoxicity Corn” value in the series with corn [9] was 0 (Herbicidal effect/phytotoxicity was 0% to 10%); in the series on corn [13] it was 1 (Herbicidal effect/phytotoxicity was 10% to 30%). Moreover, the “Herbicidal effect Abutilon theophrast” value in series [10] was 5 (Herbicidal effect/phytotoxicity was 90% or greater).

Take `COc1cc(-c2c(Cl)n3n(c2=O)CCCC3)c(Cl)cc1Cl` [Example 1-292]: the “Herbicidal effect Cyperus difformis” value in [1] is recorded as 5 (Herbicidal effect/phytotoxicity was 90% or greater). The “Herbicidal effect Echinochloa oryzicola” value in series [2] is on record as 5 (Herbicidal effect/phytotoxicity was 90% or greater). In series [3], the “Herbicidal effect Eleocharis acicularis” value is on record as 5 (Herbicidal effect/phytotoxicity was 90% or greater). Also, in series [4], the “Herbicidal effect Monochoria vaginalis” value is on record as 5 (Herbicidal effect/phytotoxicity was 90% or greater). Also, the “Herbicidal effect Scirpus juncoides” value in [5] is on record as 5 (Herbicidal effect/phytotoxicity was 90% or greater). For the same compound, the “Herbicidal effect Broadleaf weed” value in series [6] was 5 (Herbicidal effect/phytotoxicity was 90% or greater). Besides, the “Herbicidal effect Amaranthus viridis” value in [7] and in series [11] was 5 (Herbicidal effect/phytotoxicity was 90% or greater) throughout. Moreover, the “Herbicidal effect Chenopodium album” value in series [8] and in [12] was 5 (Herbicidal effect/phytotoxicity was 90% or greater) throughout. Besides, the “Phytotoxicity Corn” value in the series on corn [9] is given as 2 (Herbicidal effect/phytotoxicity was 30% to 50%); in the series on corn [13], 1 (Herbicidal effect/phytotoxicity was 10% to 30%). Besides, the “Herbicidal effect Abutilon theophrast” value in series [10] is on record as 5 (Herbicidal effect/phytotoxicity was 90% or greater).

With `O=c1c(-c2cc(OC3CCCC3)c(Cl)cc2F)c(Cl)n2n1CCCC2` [Example 1-181], the “Herbicidal effect Cyperus difformis” value in [1] is recorded as 5 (Herbicidal effect/phytotoxicity was 90% or greater). The “Herbicidal effect Echinochloa oryzicola” value in series [2] is listed as 5 (Herbicidal effect/phytotoxicity was 90% or greater). In series [3], the “Herbicidal effect Eleocharis acicularis” value is on record as 5 (Herbicidal effect/phytotoxicity was 90% or greater). Further, the “Herbicidal effect Monochoria vaginalis” value in series [4] was 5 (Herbicidal effect/phytotoxicity was 90% or greater). Moreover, the “Herbicidal effect Scirpus juncoides” value in series [5] is 5 (Herbicidal effect/phytotoxicity was 90% or greater). The “Herbicidal effect Broadleaf weed” value in [6] was 5 (Herbicidal effect/phytotoxicity was 90% or greater). Also, the “Herbicidal effect Amaranthus viridis” value in series [7] and in [11] was 5 (Herbicidal effect/phytotoxicity was 90% or greater) in each case. Besides, the “Herbicidal effect Chenopodium album” value in series [8] and in series [12] was 5 (Herbicidal effect/phytotoxicity was 90% or greater) in each case. Further, the “Phytotoxicity Corn” value is given as 0 (Herbicidal effect/phytotoxicity was 0% to 10%) with corn [9] and 1 (Herbicidal effect/phytotoxicity was 10% to 30%) in the series with corn [13]. Also, the “Herbicidal effect Abutilon theophrast” value in [10] is given as 5 (Herbicidal effect/phytotoxicity was 90% or greater).
